{"source": "patent US20220213156A1", "about": "“Peptides for use in therapy or prophylaxis of Herpesviridae-infections” (priority 2019, published 2022)", "key": {"[1]": {"test_system": "TB40-BACKL7-UL32EGFP-UL 100mCherry", "experiment": "Attachment of fluorescently tagged viral particles to HFF", "assay_type": "cell-based, Human Cytomegalovirus", "details": "HFF preincubated with peptide 1 h, 6 h after infection, data not shown", "method": "In additional experiments, […] (encoding for pp150) was GFP (green fluorescence protein)-tagged, UL100 (encoding for gM) was mCherry-tagged. This allowed discrimination between enveloped particles, which were EGFP and mCherry-positive and appeared yellow, and non-enveloped particles, which were only EGFP-positive and appeared green.\nHFF were preincubated with peptide in the corresponding concentration 1 h at 37° C. and then infected TB40-BACKL7-UL32EGFP-UL 100mCherry. After 6 h of incubation, cells were fixed and stained with DAPI."}, "HCMV TB40/E-ΔUL16-eGFP": {"test_system": "HCMV TB40/E-ΔUL16-eGFP", "experiment": "Infection assay: HFF infected with TB40E-ΔUL16-EGFP and treated with HD5-derived peptides (screening, GFP+/DAPI+)", "assay_type": "cell-based, Human Cytomegalovirus", "details": "75 μM peptide, MOI 0,5, 40 h, compared to other tested peptides", "method": "For the infection assays, the cells were sown in 96-well plates. Human foreskin fibroblasts (HFF) and ARPE-19 cells (Adult Retinal Pigment Epithelial cell line-19) were seeded with 10 000 cells in 200 μl medium per well, macrophages with 20 000 cells in 200 μl medium per well and THP with 50 000 cells in 200 μl per well. The cells were incubated overnight at 37° C. and 5% CO2 and treated the following day. A medium change to P/S-free medium was performed to avoid interaction between the antibiotics used and the peptide sequences. Afterwards the corresponding peptides were added in different concentrations and immediately afterwards the virus, the final volume was 100 μl per well. The virus of the strain TB40/E-ΔUL16-eGFP was used. TB40-ΔUL16-eGFP is a derivative of the strain TB40, in which the majority of the open reading frame UL16 has been replaced by the open reading frame of eGFP, essentially as described in detail for a homologous mutant of strain AD169 (Tischer et al., “Two-step red-mediated recombination for versatile high-efficiency markerless DNA manipulation in Escherichia coli”, Biotechniques, (2006), 40(2):191-7). […] The required volume of the virus stock was calculated using the titer according to the following formula: […]"}}, "note": "Residues, ends and D or L forms follow the SMILES beside them."}
{"smiles": "C[C@H](N)C(=O)N[C@H](C(=O)N[C@@H](CS)C(=O)N[C@@H](Cc1ccc(O)cc1)C(=O)N[C@@H](CS)C(=O)N[C@@H](CCCNC(=N)N)C(=O)N[C@H](C(=O)NCC(=O)N[C@@H](CCCNC(=N)N)C(=O)O)[C@@H](C)O)[C@@H](C)O", "note": "[HD5 (1-9), ATCYCRTGR] (H-ATCYCRTGR-OH; N-terminus and C-terminus assumed)", "values": [{"measurement": "attachment of viral particles", "setting": "[1]", "value": "blocks the attachment of viral particles"}, {"measurement": "antiviral effect (infection rate GFP+/DAPI+)", "setting": "HCMV TB40/E-ΔUL16-eGFP", "value": "excellent antiviral effect"}]}
